Measurements taken from patent US20260365670A1, “EGFR INHIBITORS AND USES THEREOF” (DIZAL (JIANGSU) PHARMACEUTICAL CO., LTD., priority 2022, published 2026).
pIC50: −log10 of the molar value. Read-outs that look alike come from different tables or passages of the source.

What was measured:
[1] = target: T1, EGFR wild type (Homo sapiens, UniProt P00533); assay: Inhibition of EGFR wild type biochemical enzymatic activity (HTRF); conditions: EGFR WT, 1 mM ATP, 1 h, room temperature, read-out: IC50 (nM) @WT
T1 construct: purchased Carna Bio
Method in brief: (§1)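 Following 1 h at room temperature with titrated compound, 1 mM ATP and 1 μM biotin-TK peptide (Mg2+/Mn2+, CHAPS, DTT, 0.5% DMSO buffer), EDTA-containing detection reagent terminated each enzyme reaction. Time-resolved fluorescence (ex 320, em 665/615 nm) ratio tracked activity. IC50 values came from four-parameter fits.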

[2] = target: T2, EGFR L858R (Homo sapiens, UniProt P00533, L858R); assay: Inhibition of EGFR L858R biochemical enzymatic activity (HTRF); conditions: 1 mM ATP, 1 h, room temperature, read-out: IC50 (nM) @L858R
T2 construct: purchased Carna Bio
Method in brief: as §1

[3] = target: T3, EGFR L858R/T790M (Homo sapiens, UniProt P00533, L858R/T790M); assay: Inhibition of EGFR L858R/T790M biochemical enzymatic activity (HTRF); conditions: EGFR L858R-T790M, 1 mM ATP, 1 h, room temperature, read-out: IC50 (nM) @L858R-T790M
T3 construct: purchased Carna Bio
Method in brief: as §1

[4] = target: T4, EGFR Exon19Del (Homo sapiens, UniProt P00533, DEL746-750); assay: Inhibition of EGFR Exon19Del biochemical enzymatic activity (HTRF); conditions: EGFR Del19, 1 mM ATP, 1 h, room temperature, read-out: IC50 @Del19
T4 construct: purchased Carna Bio
Method in brief: as §1

[5] = target: T5, EGFR Exon19Del/T790M (Homo sapiens, UniProt P00533, DEL746-750/T790M); assay: Inhibition of EGFR Exon19Del/T790M biochemical enzymatic activity (HTRF); conditions: EGFR Del19-T790M, 1 mM ATP, 1 h, room temperature, read-out: IC50 (nM) @Del19-T790M
T5 construct: purchased Carna Bio
Method in brief: as §1

[6] = target: T6, EGFR[T790M/C797S/L858R] (Homo sapiens, UniProt P00533, C797S/L858R/T790M); assay: Inhibition of EGFR[T790M/C797S/L858R] biochemical enzymatic activity (HTRF); conditions: EGFR T790M-C797S-L858R, 1 mM ATP, 1 h, room temperature, read-out: IC50 (nM) @T790M- C797S - L858R
T6 construct: purchased Carna Bio
Method in brief: as §1

[7] = target: T7, EGFR[T790M/C797S/d746-750] (Homo sapiens, UniProt P00533, C797S/DEL746-750/T790M); assay: Inhibition of EGFR[T790M/C797S/d746-750] biochemical enzymatic activity (HTRF); conditions: EGFR T790M-C797S-Del19, 1 mM ATP, 1 h, room temperature, read-out: IC50 (nM) @T790M - C797S - Del19
T7 construct: purchased Carna Bio
Method in brief: as §1

[8] = target: T8, EGFR (d746-750 C797S) (Homo sapiens, UniProt P00533, C797S/DEL746-750); assay: Inhibition of EGFR (d746-750 C797S) biochemical enzymatic activity (HTRF); conditions: EGFR Del19-C797S, 1 mM ATP, 1 h, room temperature, read-out: IC50 (nM) @Del19-C797S
T8 construct: purchased signalchem
Method in brief: as §1

[9] = target: T9, EGFR (C797S L858R) (Homo sapiens, UniProt P00533, C797S/L858R); assay: Inhibition of EGFR (C797S L858R) biochemical enzymatic activity (HTRF); conditions: EGFR L858-C797S, 1 mM ATP, 1 h, room temperature, read-out: IC50 (nM) @L858-C797S
T9 construct: purchased signalchem
Method in brief: as §1

[10] = system: Ba/F3 cells expressing EGFR mutations; assay: Cell proliferation assay, Ba/F3 cells expressing EGFR mutations (CellTiter-Glo, 72 hours); assay type: cell-based; conditions: Mus musculus, BaF3, 72 h, CellTiter-Glo
Method in brief: (§2)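 Growth over 72 h was quantified by CellTiter-Glo luminescence, normalised as (G3 − G0)/(DMSO G3 − G0), for PC-9 cells seeded at 500/well and EGFR-mutant Ba/F3 cells at 5000/well in RPMI1640. Compound concentration series added after overnight incubation; GI50 obtained from best-fit curves.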

[11] = system: PC-9; assay: Cell proliferation assay, PC-9 cells (CellTiter-Glo, 72 hours); assay type: cell-based; conditions: Homo sapiens, PC-9, 72 h, PC9 cells, CellTiter-Glo, read-out: PC9 GI50
Method in brief: as §2

[12] = system: A-431; assay: Cell proliferation GI50, A-431 cells (Table 6); assay type: cell-based; conditions: Homo sapiens, A-431, A-431 cells
[13] = BaF3 cells, EGFR DEL19-C797S, read-out: DEL19-C797S/BaF3 GI50
[14] = BaF3 cells, EGFR DEL19-T790-C797S, read-out: DEL19-T790-C797S/BaF3 GI50
[15] = BaF3 cells, EGFR L858R, read-out: L858R/BaF3 GI50
[16] = BaF3 cells, EGFR L858R-C797S, read-out: L858R-C797S/BaF3 GI50
[17] = BaF3 cells, EGFR L858R-T790-C797S, read-out: L858R-T790-C797S/BaF3 GI50
[18] = BaF3 cells, EGFR L858R-T790M, read-out: L858R-T790M/BaF3 GI50
[19] = EGFR DEL19-T790M, read-out: DEL19-T790M GI50

T3 sequence (P00533 25-1210 T790M/L858R): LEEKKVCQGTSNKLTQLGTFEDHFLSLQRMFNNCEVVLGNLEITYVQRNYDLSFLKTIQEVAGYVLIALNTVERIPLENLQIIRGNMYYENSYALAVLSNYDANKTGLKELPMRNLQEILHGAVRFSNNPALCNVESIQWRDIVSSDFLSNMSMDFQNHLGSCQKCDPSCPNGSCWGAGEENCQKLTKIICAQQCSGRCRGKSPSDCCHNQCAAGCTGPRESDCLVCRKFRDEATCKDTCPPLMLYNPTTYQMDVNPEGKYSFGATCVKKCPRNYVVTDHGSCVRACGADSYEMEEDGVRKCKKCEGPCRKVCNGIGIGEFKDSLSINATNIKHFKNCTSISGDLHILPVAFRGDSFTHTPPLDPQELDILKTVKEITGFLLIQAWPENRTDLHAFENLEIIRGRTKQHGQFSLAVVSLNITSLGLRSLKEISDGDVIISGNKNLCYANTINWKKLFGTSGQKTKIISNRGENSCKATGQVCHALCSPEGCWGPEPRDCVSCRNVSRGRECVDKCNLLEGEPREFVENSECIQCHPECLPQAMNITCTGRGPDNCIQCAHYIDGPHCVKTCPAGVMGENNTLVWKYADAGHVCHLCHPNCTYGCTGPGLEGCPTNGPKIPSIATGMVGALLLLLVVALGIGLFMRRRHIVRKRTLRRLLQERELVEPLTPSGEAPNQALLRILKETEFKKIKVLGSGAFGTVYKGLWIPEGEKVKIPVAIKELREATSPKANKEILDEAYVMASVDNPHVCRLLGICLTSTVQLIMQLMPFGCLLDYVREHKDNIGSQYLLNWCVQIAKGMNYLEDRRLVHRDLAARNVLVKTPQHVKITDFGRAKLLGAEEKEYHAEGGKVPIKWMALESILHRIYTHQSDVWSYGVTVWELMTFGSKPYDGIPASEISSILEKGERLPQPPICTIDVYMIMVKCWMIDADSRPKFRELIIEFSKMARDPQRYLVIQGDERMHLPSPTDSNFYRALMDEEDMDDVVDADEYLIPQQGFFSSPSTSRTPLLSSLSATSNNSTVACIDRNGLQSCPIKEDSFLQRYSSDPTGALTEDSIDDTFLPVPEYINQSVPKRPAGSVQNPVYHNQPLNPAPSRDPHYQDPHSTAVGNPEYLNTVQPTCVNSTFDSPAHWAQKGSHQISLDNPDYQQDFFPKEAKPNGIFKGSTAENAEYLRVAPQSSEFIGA
T9 sequence (P00533 25-1210 C797S/L858R): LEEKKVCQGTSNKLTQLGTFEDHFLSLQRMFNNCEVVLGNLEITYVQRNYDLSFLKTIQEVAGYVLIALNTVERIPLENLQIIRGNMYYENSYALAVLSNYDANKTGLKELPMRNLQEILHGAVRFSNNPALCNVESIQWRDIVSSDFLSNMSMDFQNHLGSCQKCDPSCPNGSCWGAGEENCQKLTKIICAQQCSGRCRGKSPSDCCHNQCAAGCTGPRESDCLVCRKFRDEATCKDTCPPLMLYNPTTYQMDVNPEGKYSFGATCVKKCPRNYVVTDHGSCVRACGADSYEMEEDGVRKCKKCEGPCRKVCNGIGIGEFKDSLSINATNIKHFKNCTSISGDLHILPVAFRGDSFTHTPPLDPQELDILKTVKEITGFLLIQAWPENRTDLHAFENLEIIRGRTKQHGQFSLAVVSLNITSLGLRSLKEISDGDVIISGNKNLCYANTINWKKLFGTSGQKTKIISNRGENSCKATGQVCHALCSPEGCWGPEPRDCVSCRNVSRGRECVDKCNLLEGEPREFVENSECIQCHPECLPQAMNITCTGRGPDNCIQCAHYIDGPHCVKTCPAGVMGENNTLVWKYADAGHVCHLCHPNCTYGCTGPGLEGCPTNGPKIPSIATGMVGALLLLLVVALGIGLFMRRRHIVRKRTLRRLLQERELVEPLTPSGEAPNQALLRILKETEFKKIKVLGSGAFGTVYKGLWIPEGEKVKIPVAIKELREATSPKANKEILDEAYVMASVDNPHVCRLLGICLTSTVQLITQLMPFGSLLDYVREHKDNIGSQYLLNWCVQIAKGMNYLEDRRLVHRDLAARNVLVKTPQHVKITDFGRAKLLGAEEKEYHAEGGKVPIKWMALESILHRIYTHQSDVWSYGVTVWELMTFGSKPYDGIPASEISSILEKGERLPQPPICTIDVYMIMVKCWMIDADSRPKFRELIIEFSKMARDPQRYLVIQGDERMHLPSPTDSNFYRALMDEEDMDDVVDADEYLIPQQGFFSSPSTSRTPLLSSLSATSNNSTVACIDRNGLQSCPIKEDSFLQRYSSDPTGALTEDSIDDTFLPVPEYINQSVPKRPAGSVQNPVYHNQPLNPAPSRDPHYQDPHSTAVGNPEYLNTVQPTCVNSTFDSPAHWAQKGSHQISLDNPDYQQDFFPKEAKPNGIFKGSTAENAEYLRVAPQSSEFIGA
T1 sequence (P00533 25-1210): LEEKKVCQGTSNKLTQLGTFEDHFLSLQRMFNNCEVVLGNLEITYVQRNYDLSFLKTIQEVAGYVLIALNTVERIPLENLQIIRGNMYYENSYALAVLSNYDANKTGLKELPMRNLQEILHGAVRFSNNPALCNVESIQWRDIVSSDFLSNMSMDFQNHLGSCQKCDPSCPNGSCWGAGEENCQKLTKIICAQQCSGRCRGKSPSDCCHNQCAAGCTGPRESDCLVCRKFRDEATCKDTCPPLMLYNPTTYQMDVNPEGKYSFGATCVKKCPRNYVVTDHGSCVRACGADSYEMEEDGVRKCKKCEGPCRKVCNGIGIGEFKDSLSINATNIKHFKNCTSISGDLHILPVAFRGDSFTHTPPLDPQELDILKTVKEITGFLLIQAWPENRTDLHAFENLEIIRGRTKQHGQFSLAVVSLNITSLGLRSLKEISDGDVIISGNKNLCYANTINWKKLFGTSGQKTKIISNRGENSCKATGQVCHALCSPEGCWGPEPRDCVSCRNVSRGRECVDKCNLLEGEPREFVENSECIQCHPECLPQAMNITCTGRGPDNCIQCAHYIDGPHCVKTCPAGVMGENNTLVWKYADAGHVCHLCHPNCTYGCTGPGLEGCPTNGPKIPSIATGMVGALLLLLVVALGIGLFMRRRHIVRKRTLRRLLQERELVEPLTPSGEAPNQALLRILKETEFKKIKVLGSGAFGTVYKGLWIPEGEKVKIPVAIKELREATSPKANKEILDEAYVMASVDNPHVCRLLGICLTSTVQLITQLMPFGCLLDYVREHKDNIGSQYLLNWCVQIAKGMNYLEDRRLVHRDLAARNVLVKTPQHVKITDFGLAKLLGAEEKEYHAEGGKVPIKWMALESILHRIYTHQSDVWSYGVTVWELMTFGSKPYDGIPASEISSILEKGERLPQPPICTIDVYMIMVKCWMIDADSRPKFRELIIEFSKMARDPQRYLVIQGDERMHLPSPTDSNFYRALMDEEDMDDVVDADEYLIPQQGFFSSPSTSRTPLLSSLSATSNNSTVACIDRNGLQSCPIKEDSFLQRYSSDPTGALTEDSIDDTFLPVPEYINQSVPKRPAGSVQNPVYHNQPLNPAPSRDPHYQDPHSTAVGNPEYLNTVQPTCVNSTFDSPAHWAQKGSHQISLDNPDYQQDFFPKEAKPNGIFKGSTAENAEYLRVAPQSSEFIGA
T7 sequence (P00533 with tags, fused parts or gaps DEL746-750/T790M/C797S limits assumed): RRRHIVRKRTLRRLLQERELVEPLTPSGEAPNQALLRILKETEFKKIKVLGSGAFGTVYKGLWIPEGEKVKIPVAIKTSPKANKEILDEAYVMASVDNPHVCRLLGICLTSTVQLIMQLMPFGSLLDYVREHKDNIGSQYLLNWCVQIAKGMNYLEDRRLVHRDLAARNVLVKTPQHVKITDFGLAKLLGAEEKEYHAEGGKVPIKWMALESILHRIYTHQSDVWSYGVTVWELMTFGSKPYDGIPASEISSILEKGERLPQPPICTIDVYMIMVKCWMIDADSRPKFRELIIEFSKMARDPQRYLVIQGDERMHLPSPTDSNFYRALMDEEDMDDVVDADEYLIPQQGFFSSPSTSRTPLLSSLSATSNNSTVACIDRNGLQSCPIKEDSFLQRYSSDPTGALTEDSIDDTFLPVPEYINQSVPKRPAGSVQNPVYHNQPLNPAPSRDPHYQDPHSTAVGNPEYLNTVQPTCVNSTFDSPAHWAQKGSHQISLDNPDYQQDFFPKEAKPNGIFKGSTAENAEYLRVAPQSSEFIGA
T8 sequence (P00533 with tags, fused parts or gaps DEL746-750/C797S limits assumed): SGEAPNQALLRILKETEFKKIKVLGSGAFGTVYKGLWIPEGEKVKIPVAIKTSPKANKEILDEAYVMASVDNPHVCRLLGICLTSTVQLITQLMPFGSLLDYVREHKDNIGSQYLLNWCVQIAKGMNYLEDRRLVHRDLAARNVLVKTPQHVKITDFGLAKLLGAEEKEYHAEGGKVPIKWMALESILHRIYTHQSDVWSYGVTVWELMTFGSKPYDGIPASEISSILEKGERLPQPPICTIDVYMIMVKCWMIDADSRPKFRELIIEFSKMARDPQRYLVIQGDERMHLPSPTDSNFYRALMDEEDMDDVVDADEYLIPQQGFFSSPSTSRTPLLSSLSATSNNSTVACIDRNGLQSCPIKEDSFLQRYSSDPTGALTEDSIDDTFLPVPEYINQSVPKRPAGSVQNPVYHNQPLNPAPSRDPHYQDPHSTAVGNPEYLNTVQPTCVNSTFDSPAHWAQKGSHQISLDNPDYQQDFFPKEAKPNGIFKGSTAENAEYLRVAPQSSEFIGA

Compound	IC50 [1] [nM]	IC50 [2] [nM]	IC50 [3] [nM]	pIC50 [4]	IC50 [5] [nM]	IC50 [6] [nM]	IC50 [7] [nM]	IC50 [8] [nM]	IC50 [9] [nM]	GI50 [10, 13] [nM]	GI50 [10, 14] [nM]	GI50 [10, 15] [nM]	GI50 [10, 16] [nM]	GI50 [10, 17] [nM]	GI50 [10, 18] [nM]	GI50 [10, 19] [nM]	GI50 [11] [nM]	GI50 [12] [nM]
C[C@@H]1CCCOc2c(cnn2C)-c2cc(cn(C)c2=O)C(=O)Nc2nc3ccc(N(C)CCN(C)C)cc3n2C1 [Example A36]	193	30	8	8.52	2.5	4.9	2.4	2.1	14	2.1	6	5.1	5.9	4.7	23	7.8	14	591
C[C@@H]1CCCOc2c(cnn2C)-c2cc(cn(C)c2=O)C(=O)Nc2nc3ccc(N4CC(N(C)C)C4)cc3n2C1 [Example A37]	281	40	6.5	8.47	1.4	2.3	1.2	1.7	13	0.7	3.3	3.2	3.8	2.5	10	5.5	4.3	166
C[C@@H]1CCCOc2c(cnn2C)-c2cc(cn(C)c2=O)C(=O)Nc2nc3ccc(N4CCC(N(C)C)C(F)C4)cc3n2C1 (stereo partly drawn) [Example A38]	159	9.7	2.7	8.89	1.6	1.7	1.7	0.81	2.9	1.4	4.8	4.1	4.2	3.2	13	7.3	6.2	315
C[C@@H]1CCCOc2c(cnn2C)-c2cc(cn(C)c2=O)C(=O)Nc2nc3ccc(N4CCN(C5COC5)CC4)cc3n2C1 [Example A39]	1520	74	14	8.23	5	8.2	5.1	2.8	30	1.9	4.7	5.2	6.9	5.4	16	8.4	7.6	290
C[C@@H]1CCCOc2c(cnn2C)-c2cc(cn(C)c2=O)C(=O)Nc2nc3ccc(N4CC5(CN(C)C5)C4)cc3n2C1 [Example A40]	71	11	6.1	8.36	4.5	5.2	4.3	2.3	6.7	1.7	4.2	4	5.4	4.7	17	7.7	17	642
C[C@@H]1CCCOc2c(cnn2C)-c2cc(cn(C)c2=O)C(=O)Nc2nc3ccc(N4CC5(CCN(C)CC5)C4)cc3n2C1 [Example A41]	74	10	5.1	8.64	3.5	3.2	3.1	1.7	5.3	0.33	1.1	0.47	1.4	0.57	2.9	1.4	2.9	314
C[C@@H]1CCCOc2c(cnn2C)-c2cc(cn(C)c2=O)C(=O)Nc2nc3ccc(N4CC5(CCN(C)C5)C4)cc3n2C1 [Example A42]	42	8.9	6.8	8.52	5.4	5.1	4.5	2.5	6.7	0.47	1.8	0.75	2.1	1.6	8.7	2.2	2.5	279
C[C@@H]1CCCOc2c(cnn2C)-c2cc(cn(C)c2=O)C(=O)Nc2nc3ccc(N4CCC5(CN(C)C5)C4)cc3n2C1 [Example A43]	295	21	13	8.35	3.7	7.1	4.4	2.2	8.9	1	3.6	2.6	3.4	2.5	9.5	5.2	5.7	508
C[C@@H]1CCCOc2c(cnn2C)-c2cc(cn(C)c2=O)C(=O)Nc2nc3ccc(N4CC5(CCCN5C)C4)cc3n2C1 [Example A44]	236	34	15	8.31	3.3	8.8	3.1	3	15	2	14	4.4	7	5.3	27	16	14	232
C[C@@H]1CCCOc2c(cnn2C)-c2cc(cn(C)c2=O)C(=O)Nc2nc3ccc(N4CC(N5CCN(C)CC5)C4)cc3n2C1 [Example A46]	104	14	8.5	8.59	4.1	5.7	3.9	2.2	8.5	1.2	6.8	3.1	2.4	2	12	8.1	5.4	221
C[C@@H]1CCCOc2c(cnn2C)-c2cc(cn(C)c2=O)C(=O)Nc2nc3ccc(N4CC5(CN(C)CCO5)C4)cc3n2C1 [Example A47]	1130	46	9.5	8.35	4.2	4.9	4.2	2.5	20	1.7	9.7	4	3.2	3.4	17	12	7	200
